Holding throughout (format): cell-based
Assay [1] deals with T1, human TLR7 (Homo sapiens, UniProt Q9NYK1).
T1 construct: host or cells: HEK-Blue cells
T1 sequence (Q9NYK1 27-1049): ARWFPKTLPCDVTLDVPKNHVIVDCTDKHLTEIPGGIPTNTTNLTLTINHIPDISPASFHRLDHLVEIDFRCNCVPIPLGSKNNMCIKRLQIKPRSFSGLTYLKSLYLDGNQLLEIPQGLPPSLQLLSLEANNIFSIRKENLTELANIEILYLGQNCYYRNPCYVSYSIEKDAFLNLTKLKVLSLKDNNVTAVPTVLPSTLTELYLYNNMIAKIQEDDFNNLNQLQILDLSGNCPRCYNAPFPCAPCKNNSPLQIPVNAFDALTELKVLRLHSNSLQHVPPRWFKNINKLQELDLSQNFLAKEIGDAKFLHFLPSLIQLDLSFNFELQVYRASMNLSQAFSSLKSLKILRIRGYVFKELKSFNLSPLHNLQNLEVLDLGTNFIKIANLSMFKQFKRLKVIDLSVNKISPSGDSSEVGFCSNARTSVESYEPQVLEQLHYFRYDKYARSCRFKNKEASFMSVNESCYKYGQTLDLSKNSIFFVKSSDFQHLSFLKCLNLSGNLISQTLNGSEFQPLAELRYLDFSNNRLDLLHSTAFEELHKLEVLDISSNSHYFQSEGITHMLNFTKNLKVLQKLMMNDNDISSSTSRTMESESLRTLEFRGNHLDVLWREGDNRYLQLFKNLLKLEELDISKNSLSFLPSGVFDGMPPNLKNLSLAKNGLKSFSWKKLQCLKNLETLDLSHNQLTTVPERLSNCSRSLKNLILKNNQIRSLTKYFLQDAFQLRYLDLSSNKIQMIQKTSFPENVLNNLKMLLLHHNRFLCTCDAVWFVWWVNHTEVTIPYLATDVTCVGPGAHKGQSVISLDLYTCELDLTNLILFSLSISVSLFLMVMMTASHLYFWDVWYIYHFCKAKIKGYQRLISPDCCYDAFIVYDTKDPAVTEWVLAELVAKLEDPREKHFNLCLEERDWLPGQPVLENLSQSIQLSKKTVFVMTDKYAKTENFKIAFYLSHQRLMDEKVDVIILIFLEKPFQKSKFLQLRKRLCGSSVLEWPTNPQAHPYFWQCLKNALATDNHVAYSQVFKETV
Put plainly: TLR7 inhibition reporter assay (HEK-Blue SEAP reporter, gardiquimod stimulation). To be noted: HEK-Blue cells overexpressing human TLR7, SEAP reporter, gardiquimod 7.5 μM, 22 hour incubation. A digest of the protocol:
(§1)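 Human TLR7/8/9 HEK-Blue reporter lines; dose range 0.05 nM–50 μM; 30 min RT preincubation; stimulus gardiquimod 7.5 μM / R848 15.9 μM / ODN2006 5 nM respectively; 22 h, 37 °C; SEAP detected colorimetrically.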

For assay [2], the target named is T2, human TLR8 (Homo sapiens, UniProt Q9NR97).
T2 construct: host or cells: HEK-Blue cells
T2 sequence (Q9NR97 27-1041): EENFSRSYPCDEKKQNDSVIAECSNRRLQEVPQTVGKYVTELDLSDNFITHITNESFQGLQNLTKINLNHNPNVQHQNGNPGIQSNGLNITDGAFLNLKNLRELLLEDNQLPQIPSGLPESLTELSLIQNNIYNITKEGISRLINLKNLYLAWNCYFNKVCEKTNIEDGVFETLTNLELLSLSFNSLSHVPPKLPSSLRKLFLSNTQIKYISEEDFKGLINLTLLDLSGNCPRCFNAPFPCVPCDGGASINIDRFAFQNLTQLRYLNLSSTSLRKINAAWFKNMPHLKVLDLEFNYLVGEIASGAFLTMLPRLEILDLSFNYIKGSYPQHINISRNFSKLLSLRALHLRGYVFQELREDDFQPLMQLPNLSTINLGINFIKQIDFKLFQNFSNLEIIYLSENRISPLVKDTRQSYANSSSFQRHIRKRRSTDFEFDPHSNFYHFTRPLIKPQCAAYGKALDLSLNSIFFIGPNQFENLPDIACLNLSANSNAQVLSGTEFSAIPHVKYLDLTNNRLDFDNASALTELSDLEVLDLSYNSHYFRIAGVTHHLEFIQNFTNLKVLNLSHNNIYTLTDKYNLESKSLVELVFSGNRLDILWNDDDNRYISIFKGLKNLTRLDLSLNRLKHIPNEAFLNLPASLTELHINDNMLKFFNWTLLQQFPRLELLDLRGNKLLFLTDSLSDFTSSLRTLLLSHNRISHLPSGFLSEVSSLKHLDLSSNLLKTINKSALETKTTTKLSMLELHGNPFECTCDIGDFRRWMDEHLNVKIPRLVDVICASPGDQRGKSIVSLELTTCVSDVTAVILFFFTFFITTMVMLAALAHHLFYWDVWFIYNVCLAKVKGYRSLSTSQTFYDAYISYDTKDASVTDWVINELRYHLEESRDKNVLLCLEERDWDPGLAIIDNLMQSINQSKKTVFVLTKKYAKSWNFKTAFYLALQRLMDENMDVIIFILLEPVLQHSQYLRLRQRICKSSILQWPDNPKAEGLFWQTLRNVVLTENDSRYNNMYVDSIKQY
Description: TLR8 inhibition reporter assay (HEK-Blue SEAP reporter, R848 stimulation). To be noted: HEK-Blue cells overexpressing human TLR8, SEAP reporter, R848 15.9 μM, 22 hour incubation. A digest of the protocol: as §1

Assay [3] has as its target T3, human TLR9 (Homo sapiens, UniProt Q9NR96).
T3 construct: host or cells: HEK-Blue cells
T3 sequence (Q9NR96 26-1032): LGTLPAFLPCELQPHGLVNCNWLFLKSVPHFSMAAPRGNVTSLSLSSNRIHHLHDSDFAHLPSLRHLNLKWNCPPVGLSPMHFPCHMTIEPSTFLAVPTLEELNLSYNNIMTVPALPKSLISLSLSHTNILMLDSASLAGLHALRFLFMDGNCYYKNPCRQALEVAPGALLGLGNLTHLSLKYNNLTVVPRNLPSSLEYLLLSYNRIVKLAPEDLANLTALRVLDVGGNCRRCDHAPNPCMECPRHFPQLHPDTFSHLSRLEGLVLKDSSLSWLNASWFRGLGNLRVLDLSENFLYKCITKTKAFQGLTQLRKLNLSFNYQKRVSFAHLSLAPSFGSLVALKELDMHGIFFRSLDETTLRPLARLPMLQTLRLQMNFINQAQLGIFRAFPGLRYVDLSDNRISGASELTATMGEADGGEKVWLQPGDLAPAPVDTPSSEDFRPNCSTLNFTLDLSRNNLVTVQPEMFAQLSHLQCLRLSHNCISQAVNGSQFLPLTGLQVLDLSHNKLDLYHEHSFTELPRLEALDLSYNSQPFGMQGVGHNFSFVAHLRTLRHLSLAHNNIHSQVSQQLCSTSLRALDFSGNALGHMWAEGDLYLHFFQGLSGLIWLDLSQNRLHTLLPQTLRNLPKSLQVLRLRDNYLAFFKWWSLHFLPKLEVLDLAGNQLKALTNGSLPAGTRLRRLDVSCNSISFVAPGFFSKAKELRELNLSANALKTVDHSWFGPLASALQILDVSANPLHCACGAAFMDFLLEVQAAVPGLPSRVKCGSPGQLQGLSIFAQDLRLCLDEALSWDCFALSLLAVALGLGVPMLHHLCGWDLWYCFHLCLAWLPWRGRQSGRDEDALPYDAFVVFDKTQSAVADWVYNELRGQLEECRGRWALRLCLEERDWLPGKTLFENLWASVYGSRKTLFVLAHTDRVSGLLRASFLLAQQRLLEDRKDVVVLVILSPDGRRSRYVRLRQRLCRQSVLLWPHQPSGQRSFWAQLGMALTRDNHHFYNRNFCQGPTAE
Put plainly: TLR9 inhibition reporter assay (HEK-Blue SEAP reporter, ODN2006 stimulation). To be noted: HEK-Blue cells overexpressing human TLR9, SEAP reporter, ODN2006 5 nM, 22 hour incubation. A digest of the protocol: as §1

The values that follow come from patent US11447466B2, “Substituted indole compounds useful as inhibitors of TLR7/8/9” (BRISTOL-MYERS SQUIBB COMPANY, priority 2017, dated 2022).

`Cc1cc(-c2[nH]c3ccc(C4CCNCC4)cc3c2C(C)C)cn(CCCO)c1=O` [Example 38, 1-(3-hydroxypropyl)-5-(3-isopropyl-5-(piperidin-4-yl)-1H-indol-2-yl)-3-methylpyridin-2(1H)-one]: the 50% inhibitory concentration (IC50) is 51.2 nM in assay [1], 30.3 nM in assay [2] and 3030 nM in assay [3].
Turning to `Cc1cc(-c2[nH]c3ccc(C4CCN(CC(=O)N(C)C)CC4)cc3c2C(C)C)nn(C)c1=O` [Example 116, 2-(4-(2-(1,5-dimethyl-6-oxo-1,6-dihydropyridazin-3-yl)-3-isopropyl-1H-indol-5-yl)piperidin-1-yl)-N,N-dimethylacetamide], the figures for the concentration for half-maximal inhibition (IC50) in assay [1], in assay [2] and in assay [3] were 29.6 nM, 23.8 nM and 6100 nM, respectively.
For `Cc1cc(-c2[nH]c3ccc(C4CCN(Cc5cnn(C)c5)CC4)cc3c2C(C)C)cn(C)c1=O` [Example 196, 5-(3-isopropyl-5-(1-((1-methyl-1H-pyrazol-4-yl)methyl)piperidin-4-yl)-1H-indol-2-yl)-1,3-dimethylpyridin-2(1H)-one] the same measures were 3 nM, 2.4 nM and 4980 nM.
Regarding `Cc1cc(-c2[nH]c3ccc(C4CCN(C5CCC(F)(F)CC5)CC4)cc3c2C(C)C)cn(C)c1=O` [Example 199, 5-(5-(1-(4,4-difluorocyclohexyl)piperidin-4-yl)-3-isopropyl-1H-indol-2-yl)-1,3-dimethylpyridin-2(1H)-one], the values for the IC50 in assay [1], in assay [2] and in assay [3] were 1.9 nM, 4.2 nM and 1550 nM, respectively.
For the compound `Cc1c(-c2[nH]c3ccc(C4CCN(CC(C)(C)O)CC4)cc3c2C(C)C)cc(C#N)c(=O)n1C` [Example 321, 5-(5-(1-(2-hydroxy-2-methylpropyl)piperidin-4-yl)-3-isopropyl-1H-indol-2-yl)-1,6-dimethyl-2-oxo-1,2-dihydropyridine-3-carbonitrile], the IC50 turned out to be 36.7 nM in assay [1], 1.6 nM in assay [2] and 4370 nM in assay [3].
Take `Cc1cc(-c2[nH]c3ccc(C4CCN(CC(=O)N(C)C)CC4)cc3c2C(C)C)cn(CC(F)(F)F)c1=O` [Example 165, 2-(4-(3-isopropyl-2-(5-methyl-6-oxo-1-(2,2,2-trifluoroethyl)-1,6-dihydropyridin-3-yl)-1H-indol-5-yl)piperidin-1-yl)-N,N-dimethylacetamide]: the half-maximal inhibitory concentration (IC50) in assay [1] amounted to 45.8 nM; in assay [2], 113 nM; in assay [3] it was 10100 nM.
For `CCCNC(=O)c1cc(-c2[nH]c3ccc(C4CCNCC4)cc3c2C(C)C)cn(C)c1=O` [Example 64, 5-(3-isopropyl-5-(piperidin-4-yl)-1H-indol-2-yl)-1-methyl-2-oxo-N-propyl-1,2-dihydropyridine-3-carboxamide] the same measures were 480 nM, 1080 nM and 7380 nM.
For `Cc1cc(-c2[nH]c3ccc(C4CCN(CC(O)C(C)C)CC4)cc3c2C(C)C)cn(C)c1=O` (stereo not drawn) [Example 324, 5-(5-(1-(2-hydroxy-3-methylbutyl)piperidin-4-yl)-3-isopropyl-1H-indol-2-yl)-1,3-dimethylpyridin-2(1H)-one] the same measures were 2.5 nM, 2.8 nM and 11500 nM.
Turning to `Cc1nc(-c2[nH]c3ccc(C4CCN(C(=O)CN(C)C)CC4)cc3c2C(C)C)cn(C)c1=O` [Example 295, 5-(5-(1-(dimethylglycyl)piperidin-4-yl)-3-isopropyl-1H-indol-2-yl)-1,3-dimethylpyrazin-2(1H)-one], the half-inhibitory concentration (IC50) in assay [1] is 114 nM; in assay [2] it was 61.9 nM; in assay [3], 9690 nM.
Take `Cc1cc(-c2[nH]c3ccc(C4CCN(C5CCC(C(C)(C)O)CC5)CC4)cc3c2C(C)C)cn(C)c1=O` (stereo not drawn) [Example 267, 5-(5-(1-(4-(2-hydroxypropan-2-yl)cyclohexyl)piperidin-4-yl)-3-isopropyl-1H-indol-2-yl)-1,3-dimethylpyridin-2(1H)-one]: the IC50 was determined as 2.2 nM in assay [1], 6.6 nM in assay [2] and 3540 nM in assay [3].
